Source: PubChem BioAssay (NCI)
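Method: 48-hour compound exposure of cells in 96-well plates, five concentrations, linear interpolation of endpoints. GI50 is the concentration that inhibits growth by half. TGI denotes the concentration required for complete inhibition of growth.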

Tests used:
Experiment in all cases: NCI tumour cell line growth inhibition, 48 h
DLD-1 colon = tested on: DLD-1 colon
MOLT-4 leukemia = tested on: MOLT-4 leukemia
SK-MEL-5 melanoma = tested on: SK-MEL-5 melanoma
SNB-78 CNS = tested on: SNB-78 CNS
P388 leukemia = tested on: P388 leukemia
P388/ADR leukemia = tested on: P388/ADR leukemia
HCT-15 colon = tested on: HCT-15 colon
KM12 colon = tested on: KM12 colon
RPMI-8226 leukemia = tested on: RPMI-8226 leukemia
MDA-MB-231 breast = tested on: MDA-MB-231 breast
NCI/ADR-RES ovarian = tested on: NCI/ADR-RES ovarian
HOP-62 NSCLC = tested on: HOP-62 NSCLC
MCF7 breast = tested on: MCF7 breast
HOP-92 NSCLC = tested on: HOP-92 NSCLC
T-47D breast = tested on: T-47D breast
M14 melanoma = tested on: M14 melanoma
A498 renal = tested on: A498 renal
SK-OV-3 ovarian = tested on: SK-OV-3 ovarian
OVCAR-8 ovarian = tested on: OVCAR-8 ovarian
786-0 renal = tested on: 786-0 renal
SN12C renal = tested on: SN12C renal
CCRF-CEM leukemia = tested on: CCRF-CEM leukemia
SK-MEL-28 melanoma = tested on: SK-MEL-28 melanoma
SR leukemia = tested on: SR leukemia
NCI-H460 lung = tested on: NCI-H460 lung
CAKI-1 renal = tested on: CAKI-1 renal
MALME-3M melanoma = tested on: MALME-3M melanoma
COLO 205 colon = tested on: COLO 205 colon
UO-31 renal = tested on: UO-31 renal
LOX IMVI melanoma = tested on: LOX IMVI melanoma
SK-MEL-2 melanoma = tested on: SK-MEL-2 melanoma
DU-145 prostate = tested on: DU-145 prostate
U251 CNS = tested on: U251 CNS
SNB-75 CNS = tested on: SNB-75 CNS
IGROV1 ovarian = tested on: IGROV1 ovarian
NCI-H226 lung = tested on: NCI-H226 lung
KM20L2 colon = tested on: KM20L2 colon
MDA-MB-435 = tested on: MDA-MB-435
OVCAR-4 ovarian = tested on: OVCAR-4 ovarian
A549 NSCLC = tested on: A549 NSCLC
HCC-2998 colon = tested on: HCC-2998 colon
SW-620 colon = tested on: SW-620 colon
BT-549 breast = tested on: BT-549 breast
SNB-19 CNS = tested on: SNB-19 CNS
UACC-257 melanoma = tested on: UACC-257 melanoma
HS 578T breast = tested on: HS 578T breast
UACC-62 melanoma = tested on: UACC-62 melanoma
DMS 273 small cell lung = tested on: DMS 273 small cell lung
OVCAR-5 ovarian = tested on: OVCAR-5 ovarian
SN12K1 renal = tested on: SN12K1 renal
HT29 colon = tested on: HT29 colon
HCT-116 colon = tested on: HCT-116 colon
OVCAR-3 ovarian = tested on: OVCAR-3 ovarian
SF-295 CNS = tested on: SF-295 CNS
PC-3 prostate = tested on: PC-3 prostate
SF-268 CNS = tested on: SF-268 CNS
RXF 393 renal = tested on: RXF 393 renal
EKVX NSCLC = tested on: EKVX NSCLC
MDA-N = tested on: MDA-N
HL-60(TB) leukemia = tested on: HL-60(TB) leukemia
TK-10 renal = tested on: TK-10 renal
ACHN renal = tested on: ACHN renal
K-562 leukemia = tested on: K-562 leukemia
SF-539 CNS = tested on: SF-539 CNS
HOP-18 NSCLC = tested on: HOP-18 NSCLC
NCI-H522 lung = tested on: NCI-H522 lung
NCI-H23 lung = tested on: NCI-H23 lung
XF 498 CNS = tested on: XF 498 CNS
M19-MEL melanoma = tested on: M19-MEL melanoma
DMS 114 small cell lung = tested on: DMS 114 small cell lung

O=[N+]([O-])O.[Ga] showed a GI50 (DLD-1 colon) of 3500 µM, a TGI (DLD-1 colon) of over 10000 µM and a TGI (MOLT-4 leukemia) of 2130 µM. The TGI (SK-MEL-5 melanoma) was 1310 µM, the GI50 (SNB-78 CNS) was over 4220 µM and the TGI (SNB-78 CNS) was over 4980 µM. For the same compound, the GI50 (P388 leukemia) was 1680 µM, the TGI (P388 leukemia) was over 10000 µM and the GI50 (P388/ADR leukemia) was 712 µM. It also gave a TGI (P388/ADR leukemia) of over 3030 µM, a TGI (HCT-15 colon) of 5780 µM and a TGI (KM12 colon) of over 10000 µM. For the same compound, the TGI (RPMI-8226 leukemia) was 2270 µM, the TGI (MDA-MB-231 breast) was over 10000 µM and the TGI (NCI/ADR-RES ovarian) was over 10000 µM. It also gave a TGI (HOP-62 NSCLC) of 1960 µM, a TGI (MCF7 breast) of 6200 µM and a GI50 (HOP-92 NSCLC) of 673 µM. The TGI (HOP-92 NSCLC) was 3700 µM, the TGI (T-47D breast) was over 9010 µM and the TGI (M14 melanoma) was over 10000 µM. The TGI (A498 renal) was 2590 µM, the TGI (SK-OV-3 ovarian) was 390 µM and the TGI (OVCAR-8 ovarian) was over 7940 µM. For the same compound, the TGI (786-0 renal) was over 10000 µM, the TGI (SN12C renal) was 6890 µM and the TGI (CCRF-CEM leukemia) was 3190 µM. The TGI (SK-MEL-28 melanoma) was over 10000 µM, the TGI (SR leukemia) was over 10000 µM and the TGI (NCI-H460 lung) was 8990 µM. For the same compound, the TGI (CAKI-1 renal) was over 9820 µM, the TGI (MALME-3M melanoma) was 1320 µM and the TGI (COLO 205 colon) was over 9550 µM. It also gave a TGI (UO-31 renal) of over 7740 µM, a TGI (LOX IMVI melanoma) of over 8240 µM and a GI50 (SK-MEL-2 melanoma) of 325 µM. For the same compound, the TGI (SK-MEL-2 melanoma) was 3270 µM, the TGI (DU-145 prostate) was over 10000 µM and the TGI (U251 CNS) was 4930 µM. The GI50 (SNB-75 CNS) was 1250 µM, the TGI (SNB-75 CNS) was over 7110 µM and the TGI (IGROV1 ovarian) was over 7220 µM. It also gave a TGI (NCI-H226 lung) of 9510 µM, a GI50 (KM20L2 colon) of 1270 µM and a TGI (KM20L2 colon) of over 10000 µM. It also gave a TGI (MDA-MB-435) of over 10000 µM, a TGI (OVCAR-4 ovarian) of 5040 µM and a TGI (A549 NSCLC) of over 10000 µM. The TGI (HCC-2998 colon) was over 5620 µM, the TGI (SW-620 colon) was over 10000 µM and the TGI (BT-549 breast) was over 4640 µM. For the same compound, the TGI (SNB-19 CNS) was over 10000 µM, the TGI (UACC-257 melanoma) was over 10000 µM and the TGI (HS 578T breast) was over 10000 µM. For the same compound, the GI50 (UACC-62 melanoma) was 892 µM, the TGI (UACC-62 melanoma) was over 10000 µM and the GI50 (DMS 273 small cell lung) was 470 µM. The TGI (DMS 273 small cell lung) was 6900 µM, the TGI (OVCAR-5 ovarian) was 5070 µM and the GI50 (SN12K1 renal) was 1210 µM. It also gave a TGI (SN12K1 renal) of 6000 µM, a TGI (HT29 colon) of over 7200 µM and a TGI (HCT-116 colon) of over 10000 µM. It also gave a TGI (OVCAR-3 ovarian) of 6920 µM, a TGI (SF-295 CNS) of 1240 µM and a TGI (PC-3 prostate) of over 10000 µM. For the same compound, the GI50 (SF-268 CNS) was 3000 µM, the TGI (SF-268 CNS) was over 10000 µM and the TGI (RXF 393 renal) was over 9480 µM. It also gave a TGI (EKVX NSCLC) of 5620 µM, a TGI (MDA-N) of over 10000 µM and a TGI (HL-60(TB) leukemia) of 1780 µM. It also gave a TGI (TK-10 renal) of over 7990 µM, a TGI (ACHN renal) of over 10000 µM and a TGI (K-562 leukemia) of over 8480 µM. For the same compound, the TGI (SF-539 CNS) was over 10000 µM, the GI50 (HOP-18 NSCLC) was 5210 µM and the TGI (HOP-18 NSCLC) was over 9360 µM. The TGI (NCI-H522 lung) was 4490 µM, the GI50 (NCI-H23 lung) was 1260 µM and the TGI (NCI-H23 lung) was over 10000 µM.
CCCCCCCCCCCCCCCCOCC(COP(=O)([O-])OCC[N+](C)(C)C)OCCCCCCCCCCCCCCCC (stereo unspecified) gave a TGI (DLD-1 colon) of over 100 µM, a TGI (MOLT-4 leukemia) of over 100 µM and a TGI (SK-MEL-5 melanoma) of over 100 µM. For the same compound, the TGI (SNB-78 CNS) was over 100 µM, the TGI (P388 leukemia) was over 100 µM and the TGI (P388/ADR leukemia) was over 100 µM. The TGI (HCT-15 colon) was over 100 µM, the TGI (KM12 colon) was over 100 µM and the TGI (RPMI-8226 leukemia) was over 100 µM. For the same compound, the TGI (XF 498 CNS) was over 100 µM, the TGI (NCI/ADR-RES ovarian) was over 100 µM and the TGI (HOP-62 NSCLC) was over 100 µM. For the same compound, the TGI (HOP-92 NSCLC) was over 100 µM, the TGI (A498 renal) was over 100 µM and the TGI (SK-OV-3 ovarian) was over 100 µM. For the same compound, the TGI (M19-MEL melanoma) was over 100 µM, the TGI (OVCAR-8 ovarian) was over 100 µM and the TGI (SN12C renal) was over 100 µM. For the same compound, the TGI (CCRF-CEM leukemia) was over 100 µM, the TGI (SK-MEL-28 melanoma) was over 100 µM and the TGI (NCI-H460 lung) was over 100 µM. It also gave a TGI (CAKI-1 renal) of over 100 µM, a TGI (MALME-3M melanoma) of over 100 µM and a TGI (DMS 114 small cell lung) of over 100 µM. For the same compound, the TGI (COLO 205 colon) was over 100 µM, the TGI (UO-31 renal) was over 100 µM and the TGI (LOX IMVI melanoma) was over 100 µM. For the same compound, the TGI (SK-MEL-2 melanoma) was over 100 µM, the TGI (U251 CNS) was over 100 µM and the TGI (SNB-75 CNS) was over 100 µM. The TGI (IGROV1 ovarian) was over 100 µM, the TGI (NCI-H226 lung) was over 100 µM and the TGI (KM20L2 colon) was over 100 µM. It also gave a TGI (OVCAR-4 ovarian) of over 100 µM, a TGI (HCC-2998 colon) of over 100 µM and a TGI (SW-620 colon) of over 100 µM. It also gave a TGI (SNB-19 CNS) of over 100 µM, a TGI (UACC-257 melanoma) of over 100 µM and a TGI (UACC-62 melanoma) of over 100 µM. It also gave a TGI (DMS 273 small cell lung) of over 100 µM, a TGI (OVCAR-5 ovarian) of over 100 µM and a TGI (SN12K1 renal) of over 100 µM. It also gave a TGI (HT29 colon) of over 100 µM, a TGI (HCT-116 colon) of over 100 µM and a TGI (OVCAR-3 ovarian) of over 100 µM. For the same compound, the TGI (SF-295 CNS) was over 100 µM, the TGI (SF-268 CNS) was over 100 µM and the TGI (RXF 393 renal) was over 100 µM. The TGI (EKVX NSCLC) was over 100 µM, the TGI (HL-60(TB) leukemia) was over 100 µM and the TGI (K-562 leukemia) was over 100 µM. The TGI (SF-539 CNS) was over 100 µM, the TGI (HOP-18 NSCLC) was over 100 µM and the TGI (NCI-H522 lung) was over 100 µM. The TGI (NCI-H23 lung) was over 100 µM.
